Patent publication US20240158446A1, “CYCLIC COMPOUND HAVING SELECTIVE INHIBITORY ACTION ON KRAS OVER HRAS AND NRAS” (CHUGAI SEIYAKU KABUSHIKI KAISHA, priority 2021, published 2024)

Columns and labels:
[1] = biological target: GDP-bound KRAS wild-type protein (Homo sapiens, UniProt P01116); assay: Binding to KRAS by surface plasmon resonance (SPR), Single Cycle Kinetics; conditions: SPR, Single Cycle Kinetics, GDP-bound KRAS wild-type protein; read-out: KRAS KD
[2] = biological target: GDP-bound NRAS wild-type protein (Homo sapiens, UniProt P01111); assay: Binding to NRAS by surface plasmon resonance (SPR), Single Cycle Kinetics; conditions: SPR, GDP-bound NRAS wild-type protein vs GDP-bound KRAS wild-type protein
Chain of GDP-bound NRAS wild-type protein (P01111 whole entry): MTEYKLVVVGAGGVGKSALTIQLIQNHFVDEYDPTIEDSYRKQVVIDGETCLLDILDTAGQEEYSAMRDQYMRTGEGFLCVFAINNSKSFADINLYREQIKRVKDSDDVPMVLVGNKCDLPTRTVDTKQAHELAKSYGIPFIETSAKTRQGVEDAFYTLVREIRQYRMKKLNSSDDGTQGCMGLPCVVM

[3] = biological target: GDP-bound HRAS wild-type protein (Homo sapiens, UniProt P01112); assay: Binding to HRAS by surface plasmon resonance (SPR), Single Cycle Kinetics; conditions: SPR, GDP-bound HRAS wild-type protein vs GDP-bound KRAS wild-type protein
Chain of GDP-bound HRAS wild-type protein (P01112 whole entry): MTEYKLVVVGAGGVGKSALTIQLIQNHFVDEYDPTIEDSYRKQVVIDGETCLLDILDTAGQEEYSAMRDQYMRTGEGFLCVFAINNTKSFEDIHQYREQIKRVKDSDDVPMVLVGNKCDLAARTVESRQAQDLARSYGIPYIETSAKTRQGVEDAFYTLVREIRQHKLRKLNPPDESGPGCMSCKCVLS

Chain of GDP-bound KRAS wild-type protein (P01116 whole entry): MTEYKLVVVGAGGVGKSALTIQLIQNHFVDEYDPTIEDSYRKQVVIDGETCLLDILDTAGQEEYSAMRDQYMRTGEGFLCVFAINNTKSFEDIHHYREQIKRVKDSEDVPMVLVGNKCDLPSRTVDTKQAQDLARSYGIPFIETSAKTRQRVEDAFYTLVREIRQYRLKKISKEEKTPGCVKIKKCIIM

Structure (SMILES) | Kd [1] | NRAS/KRAS (ratio of KD value for NRAS to KD value for KRAS) [2] | HRAS/KRAS (ratio of KD value for HRAS to KD value for KRAS) [3]
CCO[C@@H]1C[C@H]2C(=O)NC3(CC(C)(C)C3)C(=O)N(C)[C@@H](C(CC)CC)C(=O)N(C)[C@H](C(=O)N(C)C)CC(=O)N(C)[C@@H](CC(C)C)C(=O)N[C@@H]([C@@H](C)CC)C(=O)N(C)CC(=O)N(C)[C@H]3C/C=C\CCN(C3=O)[C@@H](Cc3ccc(C(F)(F)F)cc3)C(=O)N(C)CC(=O)N[C@@H](CCc3cc(F)c(C(F)(F)F)c(F)c3)C(=O)N2C1 [PP2127] | 180 pM | AA (a compound having 20 or more is denoted as AA) | A (a compound having 10 or more and less than 20 is denoted as A)
CCO[C@@H]1C[C@H]2C(=O)NC3(CC(C)(C)C3)C(=O)N(C)[C@@H](C(CC)CC)C(=O)N(C)[C@H](C(=O)N3CCCC3)CC(=O)N(C)[C@@H](COC)C(=O)N[C@@H]([C@@H](C)CC)C(=O)N(C)CC(=O)N(C)[C@H]3C/C=C\CCN(C3=O)[C@@H](Cc3ccc(C(F)(F)F)cc3)C(=O)N(C)CC(=O)N[C@@H](CCc3ccc(C(F)(F)F)c(Cl)c3)C(=O)N2C1 [PP2128] | 400 pM | AA (a compound having 20 or more is denoted as AA) | A (a compound having 10 or more and less than 20 is denoted as A)
CCO[C@@H]1C[C@H]2C(=O)NC3(CC(C)(C)C3)C(=O)N(C)[C@@H](C(CC)CC)C(=O)N(C)[C@H](C(=O)N(C)C)CC(=O)N(C)[C@@H](CC(C)C)C(=O)N[C@@H]([C@@H](C)CC)C(=O)N(C)CC(=O)N(C)[C@H]3C/C=C\CCN(C3=O)[C@@H](Cc3ccc(C(F)(F)F)cc3)C(=O)N(C)CC(=O)N[C@@H](CCc3ccc(C(F)(F)F)c(Cl)c3)C(=O)N2C1 [PP2132] | 270 pM | AA (a compound having 20 or more is denoted as AA) | A (a compound having 10 or more and less than 20 is denoted as A)
CCO[C@@H]1C[C@H]2C(=O)NC3(CC(C)(C)C3)C(=O)N(C)[C@@H](C(CC)CC)C(=O)N(C)[C@H](C(=O)N(C)C)CC(=O)N(C)[C@@H](CC3CCC3)C(=O)N[C@@H]([C@@H](C)CC)C(=O)N(C)CC(=O)N(C)[C@H]3C/C=C\CCN(C3=O)[C@@H](Cc3ccc(C(F)(F)F)cc3)C(=O)N(C)CC(=O)N[C@@H](CCc3cc(F)c(C(F)(F)F)c(F)c3)C(=O)N2C1 [PP2133] | 190 pM | AA (a compound having 20 or more is denoted as AA) | A (a compound having 10 or more and less than 20 is denoted as A)
CCO[C@@H]1C[C@H]2C(=O)NC3(CC(C)(C)C3)C(=O)N(C)[C@@H](C(CC)CC)C(=O)N(C)[C@H](C(=O)N(C)C)CC(=O)N(C)[C@@H](C(C)C)C(=O)N[C@@H]([C@@H](C)CC)C(=O)N(C)CC(=O)N(C)[C@H]3C/C=C\CCN(C3=O)[C@@H](Cc3ccc(C(F)(F)F)cc3)C(=O)N(C)CC(=O)N[C@@H](CCc3cc(F)c(C(F)(F)F)c(F)c3)C(=O)N2C1 [PP2135] | 490 pM | AA (a compound having 20 or more is denoted as AA) | A (a compound having 10 or more and less than 20 is denoted as A)
CCO[C@@H]1C[C@H]2C(=O)NC3(CC(C)(C)C3)C(=O)N(C)[C@@H](C(CC)CC)C(=O)N(C)[C@H](C(=O)N(C)C)CC(=O)N(C)[C@@H](CC3CC3)C(=O)N[C@@H]([C@@H](C)CC)C(=O)N(C)CC(=O)N(C)[C@H]3C/C=C\CCN(C3=O)[C@@H](Cc3ccc(C)cc3)C(=O)N(C)CC(=O)N[C@@H](CCc3cc(F)c(C(F)(F)F)c(F)c3)C(=O)N2C1 [PP2137] | 370 pM | A (a compound having 10 or more and less than 20 is denoted as A) | A (a compound having 10 or more and less than 20 is denoted as A)
CCO[C@@H]1C[C@H]2C(=O)NC3(CC(C)(C)C3)C(=O)N(C)[C@@H](C(CC)CC)C(=O)N(C)[C@H](C(=O)N(C)C)CC(=O)N(C)[C@@H](CC3CCC3)C(=O)N[C@@H]([C@@H](C)CC)C(=O)N(C)CC(=O)N(C)[C@H]3C/C=C\CCN(C3=O)[C@@H](Cc3ccc(C(F)(F)F)cc3)C(=O)N(C)CC(=O)N[C@@H](CCc3ccc(C(F)(F)F)c(Cl)c3)C(=O)N2C1 [PP2138] | 440 pM | A (a compound having 10 or more and less than 20 is denoted as A) | A (a compound having 10 or more and less than 20 is denoted as A)
CCO[C@@H]1C[C@H]2C(=O)NC3(CC(C)(C)C3)C(=O)N(C)[C@@H](C(CC)CC)C(=O)N(C)[C@H](C(=O)N(C)C)CC(=O)N(C)[C@@H](C(C)C)C(=O)N[C@@H]([C@@H](C)CC)C(=O)N(C)CC(=O)N(C)[C@H]3C/C=C\CCN(C3=O)[C@@H](Cc3ccc(C(F)(F)F)cc3)C(=O)N(C)CC(=O)N[C@@H](CCc3ccc(C(F)(F)F)c(Cl)c3)C(=O)N2C1 [PP2140] | 700 pM | AA (a compound having 20 or more is denoted as AA) | A (a compound having 10 or more and less than 20 is denoted as A)
CCO[C@@H]1C[C@H]2C(=O)NC3(CC(C)(C)C3)C(=O)N(C)[C@@H](C(CC)CC)C(=O)N(C)[C@H](C(=O)N(C)C)CC(=O)N(C)[C@@H](C)C(=O)N[C@@H]([C@@H](C)CC)C(=O)N(C)CC(=O)N(C)[C@H]3C/C=C\CCN(C3=O)[C@@H](Cc3ccc(C)cc3)C(=O)N(C)CC(=O)N[C@@H](CCc3cc(F)c(C(F)(F)F)c(F)c3)C(=O)N2C1 [PP2143] | 310 pM | A (a compound having 10 or more and less than 20 is denoted as A) | A (a compound having 10 or more and less than 20 is denoted as A)
CCO[C@@H]1C[C@H]2C(=O)NC3(CC(C)(C)C3)C(=O)N(C)[C@@H](C(CC)CC)C(=O)N(C)[C@H](C(=O)N3CCCC3)CC(=O)N(C)[C@@H](COC)C(=O)N[C@@H]([C@@H](C)CC)C(=O)N(C)CC(=O)N(C)[C@H]3C/C=C\CCN(C3=O)[C@@H](Cc3ccc(C)cc3)C(=O)N(C)CC(=O)N[C@@H](CCc3ccc(C(F)(F)F)c(Cl)c3)C(=O)N2C1 [PP2144] | 480 pM | AA (a compound having 20 or more is denoted as AA) | A (a compound having 10 or more and less than 20 is denoted as A)
CCO[C@@H]1C[C@H]2C(=O)NC3(CC(C)(C)C3)C(=O)N(C)[C@@H](C(CC)CC)C(=O)N(C)[C@H](C(=O)N3CCCC3)CC(=O)N(C)[C@@H](C)C(=O)N[C@@H]([C@@H](C)CC)C(=O)N(C)CC(=O)N(C)[C@H]3C/C=C\CCN(C3=O)[C@@H](Cc3ccc(C)cc3)C(=O)N(C)CC(=O)N[C@@H](CCc3cc(F)c(C(F)(F)F)c(F)c3)C(=O)N2C1 [PP2145] | 390 pM | A (a compound having 10 or more and less than 20 is denoted as A) | A (a compound having 10 or more and less than 20 is denoted as A)
CCC[C@H]1C(=O)N[C@@H]([C@@H](C)CC)C(=O)N(C)CC(=O)N(C)[C@H]2C/C=C\CCN(C2=O)[C@@H](Cc2ccc(C)cc2)C(=O)N(C)CC(=O)N[C@@H](CCc2ccc(C(F)(F)F)c(Cl)c2)C(=O)N2C[C@H](OCC)C[C@H]2C(=O)NC2(CC(C)(C)C2)C(=O)N(C)[C@@H](C(CC)CC)C(=O)N(C)[C@H](C(=O)N(C)C)CC(=O)N1C [PP2146] | 330 pM | A (a compound having 10 or more and less than 20 is denoted as A) | A (a compound having 10 or more and less than 20 is denoted as A)
CCO[C@@H]1C[C@H]2C(=O)NC3(CC(C)(C)C3)C(=O)N(C)[C@@H](C(CC)CC)C(=O)N(C)[C@H](C(=O)N(C)C)CC(=O)N(C)[C@@H](CC)C(=O)N[C@@H]([C@@H](C)CC)C(=O)N(C)CC(=O)N(C)[C@H]3C/C=C\CCN(C3=O)[C@@H](Cc3ccc(C)cc3)C(=O)N(C)CC(=O)N[C@@H](CCc3cc(F)c(C(F)(F)F)c(F)c3)C(=O)N2C1 [PP2147] | 330 pM | A (a compound having 10 or more and less than 20 is denoted as A) | B (a compound having 3 or more and less than 10 is denoted as B)
CCO[C@@H]1C[C@H]2C(=O)NC3(CC(C)(C)C3)C(=O)N(C)[C@@H](C(CC)CC)C(=O)N(C)[C@H](C(=O)N3CCCC3)CC(=O)N(C)[C@@H](CC)C(=O)N[C@@H]([C@@H](C)CC)C(=O)N(C)CC(=O)N(C)[C@H]3C/C=C\CCN(C3=O)[C@@H](Cc3ccc(C)cc3)C(=O)N(C)CC(=O)N[C@@H](CCc3cc(F)c(C(F)(F)F)c(F)c3)C(=O)N2C1 [PP2149] | 580 pM | A (a compound having 10 or more and less than 20 is denoted as A) | A (a compound having 10 or more and less than 20 is denoted as A)
CCO[C@@H]1C[C@H]2C(=O)NC3(CC(C)(C)C3)C(=O)N(C)[C@@H](C(CC)CC)C(=O)N(C)[C@H](C(=O)N(C)C)CC(=O)N(C)[C@@H](C)C(=O)N[C@@H]([C@@H](C)CC)C(=O)N(C)CC(=O)N(C)[C@H]3C/C=C\CCN(C3=O)[C@@H](Cc3ccc(C)cc3)C(=O)N(C)CC(=O)N[C@@H](CCc3ccc(C(F)(F)F)c(Cl)c3)C(=O)N2C1 [PP2150] | 3800 pM | AA (a compound having 20 or more is denoted as AA) | A (a compound having 10 or more and less than 20 is denoted as A)
